Assays:
DENV-2 16681 strain = assay: DENV-2 antiviral assay (eGFP-labeled virus in Vero cells); format: cell-based, Dengue virus; conditions: DENV-2 16681 eGFP, MOI 0.5, 3 days, listed as 10B*
In short: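 Vero cells were pre-plated with compound overnight, then infected with eGFP-labeled DENV-2 16681 at MOI 0.5 and incubated 3 days at 37 °C. eGFP fluorescence read by automated microscopy; 9-point 4-fold dilutions (25 μM–0.00038 μM final) in quadruplicate, EC50 by linear interpolation versus virus and cell controls.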

DENV-2 strain 16681 = assay: Tetravalent RT-qPCR assay Protocol A, serotype 2; format: cell-based; conditions: Dengue virus, DENV2, 72 h; RT-qPCR serotype 2 16681, Vero cells, day 3
Procedure: The antiviral activity of the compounds of the invention was tested against DENV-1 strain TC974#666 (NCPV; Table 6), DENV-2 strain 16681 (Table 7), DENV-3 strain H87 (NCPV; Table 8) and DENV-4 strains H241 (NCPV; Table 9) in a RT-qPCR assay. Therefore, Vero cells were infected with either DENV-1, or -2, or -3, or -4 in the presence or absence of test compounds. At day 3 post-infection, the cells were lysed and cell lysates were used to prepare cDNA of both a viral target (the 3′UTR of DENV; table 2) and a cellular reference gene (β-actin, table 2). Subsequently, a duplex real time PCR was performed on a Lightcycler480 instrument. The generated Cp value is inversely proportional to the amount of RNA expression of these targets. Inhibition of DENV replication by a test compound result in a shift of Cp's for the 3′UTR gene. On the other hand, if a test compound is toxic to the cells, a similar effect on β-actin expression will be observed. The comparative ΔΔCp method is used to calculate EC50, which is based on the relative gene expression of the target gene (3′UTR) normalized with the cellular housekeeping gene (β-actin).
The culture medium consisted of minimal essential medium supplemented with 2% of heat-inactivated fetal calf serum, 0.04% gentamycin (50 mg/mL) and 2 mM of L-glutamine. Vero cells, obtained from ECACC, were suspended in culture medium and 75 μL/well was added in 96-well plates (10000 cells/well), which already contain the antiviral compounds. Typically, these plates contain a 4-fold serial dilution of 9 dilution steps of the test compound at 200 times the final concentration in 100% DMSO (500 nL; final concentration range: 25 μM-0.00038 μM). In addition, each plate contains wells which are assigned as virus controls (containing cells and virus in the absence of compound) and cell controls (containing cells in the absence of virus and compound). Once the cells were added in the plates, the plates were incubated in a fully humidified incubator (37° C., 5% CO2) until the next day. Then, DENV-1 strain TC974#666 at an MOI of 0.6, DENV-2 strain 16681 at an MOI of 0.01, DENV-3 strain H87 at an MOI of 1.0 and DENV-4 strains H241 at an MOI of 0.2 and SG/06K2270DK1/2005 at an MOI of 0.16, were added. Therefore, 25 μL of virus suspension was added to all the wells containing test compound and to the wells assigned as virus control. In parallel, 25 μL of culture medium was added to the cell controls. Next, the plates were incubated for 3 days in a fully humidified incubator (37° C., 5% CO2). After 3 days, the supernatant was removed from the wells and the cells were washed twice with ice-cold PBS (˜100 μL). The cell pellets within the 96-well plates were stored at −80° C. for at least 1 day. Next, RNA was extracted using the Cells-to-CT™ lysis kit, according to the manufacture's guideline (Applied Biosystems). The cell lysates can be stored at −80° C. or immediately used in the reverse transcription step.
In preparation of the reverse transcription step, mix A (table 3A) was prepared and 7.57 μL/well was dispensed in a 96-well plate. After addition of 5 μL of the cell lysates, a five minute denaturation step at 75° C. was performed (table 3B). Afterwards, 7.43 μL of mix B was added (table 3C) and the reverse transcription step was initiated (table 3D) to generate cDNA.
Finally, a RT-qPCR mix was prepared, mix C (table 4A), dispensed in 96-well LightCycler qPCR plates to which 3 μL of cDNA was added and the qPCR was performed according to the conditions in table 4B on a LightCycler 480. Using the LightCycler software and an in-house LIMS system, dose response curves for each compound were calculated and the half maximal effective concentration (EC50) and the half maximal cytotoxic concentration (CC50) were determined.

Question: Which EC50 (DENV-2 16681 strain) does the source give for `COc1cc(NC(C(=O)c2c[nH]c3cc(OC)c(C)cc23)c2ccc(F)cc2OC)cc(S(C)(=O)=O)c1` (single isomer, unassigned) [Enantiomer 10B, 2-(4-fluoro-2-methoxyphenyl)-2-((3-methoxy-5-(methylsulfonyl)phenyl)amino)-1-(6-methoxy-5-methyl-1H-indol-3-yl)ethanone] here?
Answer: 0.67 nM

Question: And the EC50 (DENV-2 strain 16681)?
Answer: 0.605 nM

— patent publication US10029984B2, “Mono- or di-substituted indole derivatives as dengue viral replication inhibitors” (Janssen Pharmaceuticals, Inc., priority 2015, dated 2018)
